Patent US20100298141A1, “SUBSTITUTED PYRIDINE N-OXIDE HERBICIDES” (E. I. DU PONT DE NEMOURS AND COMPANY, priority 2007, published 2010)

Tests used:
Assay in all cases: Test F preemergence test
Conditions in all cases: scale 0 to 100
guineagrass = assay type: in vivo, Panicum maximum
Method in brief: (§1)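 Test chemicals were formulated in a non-phytotoxic solvent mixture with surfactant and applied preemergence to planted seeds or postemergence to sugarcane plants. Plants were kept in a greenhouse for 14 to 21 days, then visually evaluated against controls.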

common mallow = assay type: in vivo, Malva sylvestris
Method in brief: as §1

field bindweed = assay type: in vivo, Convolvulus arvensis
Method in brief: as §1

Italian ryegrass = assay type: in vivo, Lolium multiflorum
Method in brief: as §1

annual bluegrass = assay type: in vivo, Poa annua
Method in brief: as §1

dallisgrass = assay type: in vivo, Paspalum dilatatum
Method in brief: as §1

mustard = assay type: in vivo, Brassica nigra
Method in brief: as §1

Virginia dayflower = assay type: in vivo, Commelina virginica
Method in brief: as §1

Surinam grass = assay type: in vivo, Brachiaria decumbens
Method in brief: as §1

southern sandbur = assay type: in vivo, Cenchrus echinatus
Method in brief: as §1

common purslane = assay type: in vivo, Portulaca oleracea
Method in brief: as §1

common groundsel = assay type: in vivo, Senecio vulgaris
Method in brief: as §1

large crabgrass = assay type: in vivo, Digitaria sanguinalis
Method in brief: as §1

kochia = assay type: in vivo, Kochia scoparia
Method in brief: as §1

quackgrass = assay type: in vivo, Elytrigia repens
Method in brief: as §1

barnyardgrass = assay type: in vivo, Echinochloa crus-galli
Method in brief: as §1

In the case of `Cn1nc(C(F)(F)F)c(C[S+]([O-])c2cccc[n+]2[O-])c1OCC(F)(F)F` (racemic) [Compound 28], the “Guineagrass plant response rating” value (guineagrass; 62 g ai/ha, Preemergence) is reported as 100, the “Guineagrass plant response rating” value (guineagrass; 125 g ai/ha, preemergence) is reported as 100 and the “Plant response rating, Guineagrass” value (guineagrass; Preemergence, 16 g ai/ha) is reported as 75. For the same compound, the “Plant response rating, Guineagrass” value (guineagrass; Preemergence, 31 g ai/ha) was 100, the “Mallow plant response rating” value (common mallow; 62 g ai/ha, Preemergence) was 100 and the “Mallow plant response rating” value (common mallow; 125 g ai/ha, preemergence) was 100. The “Plant response rating, Mallow” value (common mallow; Preemergence, 16 g ai/ha) was 0, the “Plant response rating, Mallow” value (common mallow; Preemergence, 31 g ai/ha) was 100 and the “Field Bindweed plant response rating” value (field bindweed; 62 g ai/ha, Preemergence) was 80. The “Field Bindweed plant response rating” value (field bindweed; 125 g ai/ha, preemergence) was 90, the “Plant response rating, Field Bindweed” value (field bindweed; Preemergence, 16 g ai/ha) was 60 and the “Plant response rating, Field Bindweed” value (field bindweed; Preemergence, 31 g ai/ha) was 70. The “Ryegrass, Italian plant response rating” value (Italian ryegrass; 62 g ai/ha, Preemergence) was 100, the “Ryegrass, Italian plant response rating” value (Italian ryegrass; 125 g ai/ha, preemergence) was 100 and the “Plant response rating, Ryegrass, Italian” value (Italian ryegrass; Preemergence, 16 g ai/ha) was 65. The “Plant response rating, Ryegrass, Italian” value (Italian ryegrass; Preemergence, 31 g ai/ha) was 98, the “Bluegrass plant response rating” value (annual bluegrass; 62 g ai/ha, Preemergence) was 65 and the “Bluegrass plant response rating” value (annual bluegrass; 125 g ai/ha, preemergence) was 100. For the same compound, the “Plant response rating, Bluegrass” value (annual bluegrass; Preemergence, 16 g ai/ha) was 0, the “Plant response rating, Bluegrass” value (annual bluegrass; Preemergence, 31 g ai/ha) was 40 and the “Dallisgrass plant response rating” value (dallisgrass; 62 g ai/ha, Preemergence) was 100. The “Dallisgrass plant response rating” value (dallisgrass; 125 g ai/ha, preemergence) was 100, the “Plant response rating, Dallisgrass” value (dallisgrass; Preemergence, 16 g ai/ha) was 0 and the “Plant response rating, Dallisgrass” value (dallisgrass; Preemergence, 31 g ai/ha) was 40. The “Black Mustard plant response rating” value (mustard; 62 g ai/ha, Preemergence) was 100, the “Black Mustard plant response rating” value (mustard; 125 g ai/ha, preemergence) was 100 and the “Plant response rating, Black Mustard” value (mustard; Preemergence, 16 g ai/ha) was 80. The “Plant response rating, Black Mustard” value (mustard; Preemergence, 31 g ai/ha) was 100, the “Dayflower plant response rating” value (Virginia dayflower; 62 g ai/ha, Preemergence) was 100 and the “Dayflower plant response rating” value (Virginia dayflower; 125 g ai/ha, preemergence) was 100. The “Plant response rating, Dayflower” value (Virginia dayflower; Preemergence, 16 g ai/ha) was 20, the “Plant response rating, Dayflower” value (Virginia dayflower; Preemergence, 31 g ai/ha) was 100 and the “Surinam Grass plant response rating” value (Surinam grass; 62 g ai/ha, Preemergence) was 100. The “Surinam Grass plant response rating” value (Surinam grass; 125 g ai/ha, preemergence) was 100, the “Plant response rating, Surinam Grass” value (Surinam grass; Preemergence, 31 g ai/ha) was 90 and the “Sandbur plant response rating” value (southern sandbur; 62 g ai/ha, Preemergence) was 100. The “Sandbur plant response rating” value (southern sandbur; 125 g ai/ha, preemergence) was 100, the “Plant response rating, Sandbur” value (southern sandbur; Preemergence, 31 g ai/ha) was 90 and the “Purslane plant response rating” value (common purslane; 62 g ai/ha, Preemergence) was 100. The “Purslane plant response rating” value (common purslane; 125 g ai/ha, preemergence) was 100, the “Plant response rating, Purslane” value (common purslane; Preemergence, 16 g ai/ha) was 0 and the “Plant response rating, Purslane” value (common purslane; Preemergence, 31 g ai/ha) was 60. For the same compound, the “Groundsel plant response rating” value (common groundsel; 62 g ai/ha, Preemergence) was 100, the “Groundsel plant response rating” value (common groundsel; 125 g ai/ha, preemergence) was 100 and the “Plant response rating, Groundsel” value (common groundsel; Preemergence, 16 g ai/ha) was 90. The “Plant response rating, Groundsel” value (common groundsel; Preemergence, 31 g ai/ha) was 100, the “Crabgrass, Large plant response rating” value (large crabgrass; 62 g ai/ha, Preemergence) was 100 and the “Crabgrass, Large plant response rating” value (large crabgrass; 125 g ai/ha, preemergence) was 100. For the same compound, the “Plant response rating, Crabgrass, Large” value (large crabgrass; Preemergence, 16 g ai/ha) was 30, the “Plant response rating, Crabgrass, Large” value (large crabgrass; Preemergence, 31 g ai/ha) was 80 and the “Kochia plant response rating” value (kochia; 62 g ai/ha, Preemergence) was 100. For the same compound, the “Kochia plant response rating” value (kochia; 125 g ai/ha, preemergence) was 100, the “Plant response rating, Kochia” value (kochia; Preemergence, 16 g ai/ha) was 0 and the “Plant response rating, Kochia” value (kochia; Preemergence, 31 g ai/ha) was 50. For the same compound, the “Quackgrass plant response rating” value (quackgrass; 62 g ai/ha, Preemergence) was 90, the “Quackgrass plant response rating” value (quackgrass; 125 g ai/ha, preemergence) was 95 and the “Plant response rating, Quackgrass” value (quackgrass; Preemergence, 16 g ai/ha) was 0. The “Plant response rating, Quackgrass” value (quackgrass; Preemergence, 31 g ai/ha) was 50, the “Barnyardgrass plant response rating” value (barnyardgrass; 62 g ai/ha, Preemergence) was 100 and the “Barnyardgrass plant response rating” value (barnyardgrass; 125 g ai/ha, preemergence) was 100. For the same compound, the “Plant response rating, Barnyardgrass” value (barnyardgrass; Preemergence, 16 g ai/ha) was 75 and the “Plant response rating, Barnyardgrass” value (barnyardgrass; Preemergence, 31 g ai/ha) was 100.
